Assay results published in patent US10689378B2, “Triazolopyridine compounds and uses thereof” (Novartis AG, priority 2016, dated 2020).
Where two headings read alike, the source gives them in different places.

Columns and labels:
[1] = target: T1, EED (1-441)-His protein (Homo sapiens, UniProt O75530); assay: EED-H3K27Me3 peptide competition binding assay by AlphaScreen
T1 construct: 30 nM EED (1-441)-His protein
Method: EED-H3K27Me3 Peptide Competition Binding Assay by AlphaScreen (α-Screen)
To assess the compounds' potency in the EED-H3K27Me3 competition binding assay, compounds were serially diluted 3-fold in DMSO to obtain a total of twelve concentrations. Then compounds at each concentration (75 nL of each) were transferred by Mosquito into a 384-well Perkin Elmer ProxiPlate 384 plus plates. 8 uL of solutions containing 30 nM EED (1-441)-His protein and 15 nM biotin-H3K27Me3 (19-33) peptide in the buffer (25 mM HEPES, pH 8, 0.02% Tween-20, 0.5% BSA) were added to the wells and then incubated with compound for 20 min. AlphaScreen detection beads mix was prepared immediately before use by mixing nickel chelate acceptor beads and streptavidin donor beads in a 1:1 ratio (Perkin Elmer, Product No. 6760619C/M/R) into the buffer described above. Then 4 μL of detection beads mix was added to the plate and incubate in the dark at the rt for 1 h. The final concentration of donor and acceptor beads was 10 μg/mL for each. Plates were read on EnVision (PerkinElmer) using the AlphaScreen setting adapted for optimal signal detection with a 615 nm filter, after sample excitation at 680 nm. The emission signal at 615 nm was used to quantify compounds inhibition. AlphaScreen signals were normalized based on the reading coming from the positive (maximum signal control) and negative controls (minimum signal control) to give percentage of activities left. The data were then fit to a dose response equation using the program Helios (Novartis) to get the IC50 values. Helios is a Novartis in-house assay data analysis software using the methods described by Normolle, D. P., Statistics in Medicine, 12:2025-2042 (1993); Formenko, I. et al, Computer Methods and Programs in Biomedicine, 82, 31-37 (2006); Sebaugh, J. L., Pharmaceutical Statistics, 10:128-134 (2011); Kelly, C. et al., Biometrics, 46(4):1071-1085 (1990); and Kahm, M. et al., Journal of Statistical Software, 33 (7): (2010) (grofit: Fitting Biological Growth Curves with R, pages 1-21, available at http://www.jstatsoft.org/).

[2] = system: H3K27 methylation in G401 cell; assay: ELISA (H3K27 methylation) assay in G401 cells; type: cell-based, human; settings: Homo sapiens, G-401, read-out: (c) IC50, ELISA Qualified
Method: Compounds of the present invention were assessed for their ability to inhibit PRC2 activity in a pentameric complex of EZH2, SUZ12, EED, Rbap48 and AEBP in biochemical assays. The ability of compounds of the present invention to inhibit cellular activity of PRC2 was assessed by analysing histone H3 lysine 27 methylation in human cell lines. The ability of compounds of the present invention to inhibit cancers was derived from their ability to modulate activity in human cancer cell lines bearing specific dependence to PRC2 activity to maintain cancerous growth.
ELISA (H3K27 Methylation) Assay
Representative compounds of the present invention were serially and separately diluted 3-fold in DMSO to obtain a total of eight or twelve concentrations. Then the compounds were added to G401 cell cultured in 384-well plate at 1:500 dilution to obtain the highest concentration of 20 μM. The cells were further cultured for 48 h before ELISA procedure.
Histone extraction: Cells, in 384-well plate, were washed with PBS (10×PBS buffer (80 g NaCl (Sigma, S3014), 2 g KCl (Sigma, 60128), 14.4 g Na2HPO4 (Sigma, S5136), 2.4 g KH2PO4 (Sigma, P9791) to 1 L water, pH to 7.4) and lysed with the addition of lysis buffer (0.4N HCl; 45 μL per well). The plate was gently agitated at 4° C. for 30 min. The cell lysate was neutralized with neutralization buffer (0.5 M sodium phosphate dibasic, pH 12.5, 1 mM DTT; 36 μL per well). The plate was agitated to ensure the lysates were well mixed prior to the ELISA protocol.
ELISA protocol: Cell lysates were transferred to the wells of a 384-well plate and the final volume was adjusted to 50 μL per well with PBS. The plate was sealed, centrifuged at 2,000 rpm for 2 min and incubated at 4° C. for about 16 h. The plate was washed with TBST buffer (1×TBS (10×TBS: 24.2 g Tris (Sigma, T6066), 80 g NaCl (Sigma, S3014) to 1 L of water and adjust pH to 7.6 with HCl) with 0.1% Tween-20). Blocking buffer (TBST, 5% BSA; 50 μL per well) was added and the plate was incubated for 1 h at rt. The blocking buffer was removed and primary antibody was added (30 μL per well). The following dilutions were performed with blocking buffer: for anti-H3K27me3 antibody (Cell Signaling Technology, #9733), dilution was 1:1000; for anti-H3K27me2 antibody (Cell Signaling Technology, #9288), dilution was 1:100; for anti-H3 antibody (Abcam, Cat #24834), dilution was 1:1000. The primary antibody was incubated in the plate at rt for 1 h. The wells were washed with TBST and incubated with secondary antibody for 1 h at rt. For secondary antibodies, the following dilutions were carried out with blocking buffer: anti-rabbit antibody (Jackson ImmunoResearch, #111-035-003), dilution was 1:2000; and anti-mouse antibody (Cell signaling technology, #7076), dilution was 1:1000. After 1 h of incubation at rt, the wells were washed with TBST. ECL substrate (Pierce, #34080) was added at 30 μL per well and the plates were centrifuged at 2,000 rpm for 2 min. The signal was read using a PerkinElmer Envision Reader. The H3K27 methylation readouts were normalized using H3 signal and then percentage inhibition was calculated against the samples treated with DMSO. The data were then fit to a dose response curve using the program Helios to get the IC50 values of the test compound.

[3] = read-out: (a) IC50, EED Alphascreen binding Qualified

T1 sequence (O75530 whole entry): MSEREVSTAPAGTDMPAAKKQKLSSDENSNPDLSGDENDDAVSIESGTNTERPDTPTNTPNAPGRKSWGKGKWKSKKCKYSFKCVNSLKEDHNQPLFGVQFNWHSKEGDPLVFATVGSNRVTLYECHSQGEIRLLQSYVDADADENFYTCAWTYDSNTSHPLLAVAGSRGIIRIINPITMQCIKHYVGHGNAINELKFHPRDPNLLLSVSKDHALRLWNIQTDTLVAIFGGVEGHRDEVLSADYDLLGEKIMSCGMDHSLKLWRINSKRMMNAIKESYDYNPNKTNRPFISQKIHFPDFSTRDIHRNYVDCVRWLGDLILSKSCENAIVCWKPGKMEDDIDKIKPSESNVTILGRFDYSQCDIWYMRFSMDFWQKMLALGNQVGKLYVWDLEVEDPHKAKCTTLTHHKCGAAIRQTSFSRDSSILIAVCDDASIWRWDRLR

SMILES | IC50 [1, 3] | IC50 [2] | IC50 ([1]; EED-H3K27Me3 peptide competition, AlphaScreen, read-out: (a) IC50 EED Alphascreen binding Qualified)
COc1cccc(CNc2ccc(-c3ccc(CN(C)C)cc3)c3nncn23)c1 [Example 14, 8-(4-((dimethylamino)methyl)phenyl)-N-(3-methoxybenzyl)-[1,2,4] triazolo[4,3-a]pyridin-5-amine] | 325 nM | 280 nM | 
CN(C)Cc1ccc(-c2ccc(NCc3ccccc3)n3cnnc23)cc1 [Example 17, N-benzyl-8-(4-((dimethylamino)methyl)phenyl)-[1,2,4]triazolo[4,3-a] pyridin-5-amine] | 234 nM | 249 nM | 
CN(C)Cc1ccc(-c2ccc(NCc3cccc(F)c3)n3cnnc23)cc1 [Example 35, 8-(4-((dimethylamino)methyl)phenyl)-N-(3-fluorobenzyl)-[1,2,4] triazolo [4,3-a]pyridin-5-amine] | 2570 nM | 3490 nM | 
CN(C)Cc1ccc(-c2ccc(NCc3ccc(F)cc3)n3cnnc23)cc1 [Example 37, 8-(4-((dimethylamino)methyl)phenyl)-N-(4-fluorobenzyl)-[1,2,4]triazolo[4,3-a] pyridin-5-amine] | 1520 nM | 1800 nM | 
CN(C)Cc1ccc(-c2ccc(NCc3cccnc3)n3cnnc23)cc1 [Example 48, 8-(4-((dimethylamino)methyl)phenyl)-N-(pyridin-3-ylmethyl)-[1,2,4]triazolo[4,3-a]pyridin-5-amine] | 4230 nM | 2280 nM | 
COc1ccc(F)c(CNc2ccc(-c3ccc(CN(C)C)cc3)c3nncn23)c1 [Example 49, 8-(4-((dimethylamino)methyl)phenyl)-N-(2-fluoro-5-methoxybenzyl)-[1,2,4] triazolo[4,3-a]pyridin-5-amine] | 164 nM | 140 nM | 
COc1ccccc1CNc1ccc(-c2ccc(N3CCOCC3)c(Cl)c2)c2nncn12 [Example 65, 8-(3-chloro-4-morpholinophenyl)-N-(2-methoxybenzyl)-[1,2,4] triazolo[4,3-a]pyridin-5-amine] | 1660 nM | 11000 nM | 
COc1ccccc1CNc1ccc(-c2cnc(N3CCN(C)CC3)c(Cl)c2)c2nncn12 [Example 75, 8-(5-chloro-6-(4-methylpiperazin-1-yl)pyridin-3-yl)-N-(2-methoxybenzyl)-[1,2,4] triazolo[4,3-a]pyridin-5-amine] | 132 nM | 488 nM | 
COc1cccc(F)c1CNc1ccc(-c2ccc(S(=O)(=O)N(C)C)cc2)c2nncn12 [Example 79, 4-(5-((2-fluoro-6-methoxybenzyl)amino)-[1,2,4]triazolo[4,3-a]pyridin-8-yl)-N,N-dimethylbenzene sulfonamide] | 116 nM | 78.5 nM | 
COc1cc(F)cc(F)c1CNc1ccc(-c2cnc(OC3CC3)nc2C)c2nncn12 [Example 344, 8-(2-cyclopropoxy-4-methylpyrimidin-5-yl)-N-(2,4-difluoro-6-methoxybenzyl)-[1,2,4]triazolo[4,3-a]pyridin-5-amine] |  |  | 25.5 nM

The next lines start with the values.

IC50 [1, 3] | IC50 [2] | IC50 ([1]; EED-H3K27Me3 peptide competition, AlphaScreen, read-out: (a) IC50 EED Alphascreen binding Qualified) | SMILES
180 nM | 521 nM |  | COc1ccccc1CNc1ccc(-c2ccccc2)c2nncn12 [Example 23, N-(2-methoxybenzyl)-8-phenyl-[1,2,4]triazolo[4,3-a] pyridin-5-amine]
394 nM | 508 nM |  | Cc1ccccc1CNc1ccc(-c2ccc(CN(C)C)cc2)c2nncn12 [Example 31, 8-(4-((dimethylamino)methyl)phenyl)-N-(2-methylbenzyl)-[1,2,4]triazolo[4,3-a]pyridin-5-amine]
1010 nM | 937 nM |  | CN(C)Cc1ccc(-c2ccc(NCc3ccccc3F)n3cnnc23)cc1 [Example 36, 8-(4-((dimethylamino)methyl)phenyl)-N-(2-fluorobenzyl)-[1,2,4] triazolo [4,3-a]pyridin-5-amine]
160 nM | 529 nM |  | COc1ccccc1CNc1ccc(-c2ccccc2C)c2nncn12 [Example 46, N-(2-methoxybenzyl)-8-(o-tolyl)-[1,2,4]triazolo[4,3-a] pyridin-5-amine]
127 nM | 159 nM |  | COc1cncc(-c2ccc(NCc3ccccc3OC)n3cnnc23)c1 [Example 51, N-(2-methoxybenzyl)-8-(5-methoxypyridin-3-yl)-[1,2,4] triazolo[4,3-a]pyridin-5-amine]
15.1 nM | 44.1 nM |  | COc1ccccc1CNc1ccc(-c2ccc(CN3CCCC3=O)cc2)c2nncn12 [Example 55, 1-(4-(5-((2-methoxybenzyl)amino)-[1,2,4]triazolo[4,3-a]pyridin-8-yl)benzyl) pyrrolidin-2-one]
59.8 nM | 66.3 nM |  | COc1ccccc1CNc1ccc(-c2cncnc2)c2nncn12 [Example 58, N-(2-methoxybenzyl)-8-(pyrimidin-5-yl)-[1,2,4] triazolo[4,3-a]pyridin-5-amine]
31.6 nM | 168 nM |  | COc1cc(-c2ccc(NCc3ccccc3OC)n3cnnc23)ccn1 [Example 59, N-(2-methoxybenzyl)-8-(2-methoxypyridin-4-yl)-[1,2,4] triazolo[4,3-a]pyridin-5-amine]
40.2 nM | 56.5 nM |  | COc1ccccc1CNc1ccc(-c2ccc(CN3CCCC3)cc2)c2nncn12 [Example 60, N-(2-methoxybenzyl)-8-(4-(pyrrolidin-1-ylmethyl)phenyl)-[1,2,4]triazolo[4,3-a] pyridin-5-amine]
320 nM | 4240 nM |  | COc1ccccc1CNc1ccc(-c2ccc(-c3nn[nH]n3)cc2)c2nncn12 [Example 74, 8-(4-(2H-tetrazol-5-yl)phenyl)-N-(2-methoxybenzyl)-[1,2,4]triazolo[4,3-a] pyridin-5-amine]
224 nM | 779 nM |  | COc1ccccc1CNc1ccc(-c2ccc(NC(C)=O)cc2)c2nncn12 [Example 80, N-(4-(5-((2-methoxybenzyl)amino)-[1,2,4]triazolo[4,3-a]pyridin-8-yl)phenyl) acetamide]
387 nM | 928 nM |  | COc1ccc(F)cc1CNc1ccc(-c2ccc(CN(C)C)cc2)c2nncn12 [Example 81, 8-(4-((dimethylamino)methyl)phenyl)-N-(5-fluoro-2-methoxybenzyl)-[1,2,4]triazolo[4,3-a]pyridin-5-amine]
